This note sets out measurements from PubChem BioAssay (NCI).

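Each compound was tested at five concentrations against cells in 96-well plates for 48 hours. GI50 marks 50% less growth. TGI is the concentration that stops growth completely.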

Some test systems named below: HCC-2998 colon; RPMI-8226 leukemia; LOX IMVI melanoma; K-562 leukemia; MOLT-4 leukemia; CCRF-CEM leukemia; HCT-15 colon; SN12C renal; SK-MEL-2 melanoma.
Common to all, as to test: NCI anticancer screen, dose series, 48 h

Take `NC(=O)NCc1c(C(N)=O)ncn1Cc1ccccc1`: the TGI in the assay with HCC-2998 colon, with RPMI-8226 leukemia, in the assay with LOX IMVI melanoma, in the assay on K-562 leukemia, with MOLT-4 leukemia and in the assay on CCRF-CEM leukemia was over 100 µM each time. Also, the TGI in the assay with HCT-15 colon and in the assay on SN12C renal was over 100 µM throughout.

On to `COc1ccc(OC)c2c(C(=O)O)c(Cc3ccccc3)ccc12`, for which the TGI with HCC-2998 colon, in the assay with LOX IMVI melanoma, in the assay on K-562 leukemia, in the assay with MOLT-4 leukemia, in the assay with HCT-15 colon and in the assay with SN12C renal was over 100 µM in each case. The molecule also returned a TGI with SK-MEL-2 melanoma of over 100 µM.

Regarding `CCCCCCCCCCCC(=O)OCC1OC(OC)C(NC(=O)N(CCCl)N=O)C(O)C1O` (configuration not stated), the TGI in the assay on HCC-2998 colon came out at 33.2 µM; in the assay on RPMI-8226 leukemia it was 29.6 µM; with LOX IMVI melanoma it was 21.6 µM; in the assay on K-562 leukemia it was 31.1 µM; in the assay on MOLT-4 leukemia it was 16.1 µM; in the assay with CCRF-CEM leukemia it was 13.8 µM. In addition, the figures for the TGI in the assay with HCT-15 colon, in the assay on SN12C renal and with SK-MEL-2 melanoma were 96.1 µM, 29.5 µM and 54.5 µM, respectively.

As for `Cn1c2ccccc2c(=O)c2ccc(Cl)cc21`, the TGI with HCC-2998 colon, in the assay with RPMI-8226 leukemia, in the assay with LOX IMVI melanoma, with K-562 leukemia, with MOLT-4 leukemia and with CCRF-CEM leukemia was over 10 µM each time. Besides, the TGI with HCT-15 colon, in the assay with SN12C renal and with SK-MEL-2 melanoma was over 10 µM throughout.

For `COc1cc(/C=C(\C#N)c2ccccc2)cc(OC)c1`, the TGI in the assay on HCC-2998 colon was over 100 µM; in the assay on RPMI-8226 leukemia, over 100 µM; in the assay with LOX IMVI melanoma, 65.4 µM; with K-562 leukemia it was 79.7 µM; with MOLT-4 leukemia it was 58.6 µM; with CCRF-CEM leukemia it was over 100 µM. Also, the TGI in the assay on HCT-15 colon, in the assay with SN12C renal and with SK-MEL-2 melanoma was over 100 µM each time.

On to `O=C1CC2c3ccccc3CCC2c2ccccc21` (configuration not stated), for which the TGI in the assay with HCC-2998 colon is 50.5 µM; in the assay on RPMI-8226 leukemia it was over 100 µM; in the assay on LOX IMVI melanoma, 34.3 µM; in the assay with K-562 leukemia it was over 100 µM; in the assay with MOLT-4 leukemia, over 100 µM; in the assay on HCT-15 colon, 50.1 µM. In the assay with SK-MEL-2 melanoma, this molecule displayed a TGI of 35.9 µM.

Regarding `CCN(CC)c1ccc(N=Nc2ccc(-c3nc4ccc[n+](C)c4s3)cc2)cc1`, the TGI was 25.7 µM in the assay on RPMI-8226 leukemia; 15.8 µM in the assay with LOX IMVI melanoma; over 100 µM in the assay on K-562 leukemia; 24.6 µM in the assay on MOLT-4 leukemia; over 100 µM with CCRF-CEM leukemia; 32.1 µM with HCT-15 colon. In addition, the TGI with SN12C renal was determined as 16.2 µM; in the assay on SK-MEL-2 melanoma it was 25.5 µM.

On to `COc1ccc2nc(NC(=O)C(=O)C(C#N)c3ccc([N+](=O)[O-])cc3)sc2c1` (configuration not stated), for which the TGI in the assay on HCC-2998 colon, with RPMI-8226 leukemia, in the assay with LOX IMVI melanoma, in the assay on K-562 leukemia, in the assay with MOLT-4 leukemia and in the assay on HCT-15 colon was over 100 µM in each case. The TGI with SN12C renal and in the assay with SK-MEL-2 melanoma was over 100 µM in each case.

Regarding `C=CCc1ccc(Oc2cc(CC=C)c3c(c2O)O[C@@H](CO)[C@H]3c2ccc(O)c(-c3cc(CC=C)ccc3O)c2)cc1`, the TGI with HCC-2998 colon was over 100 µM; in the assay on RPMI-8226 leukemia, over 100 µM; in the assay on LOX IMVI melanoma, 30.9 µM; in the assay with K-562 leukemia, over 100 µM; in the assay with CCRF-CEM leukemia it was 46.6 µM; in the assay with HCT-15 colon it was over 100 µM. The TGI with SN12C renal is over 100 µM; in the assay with SK-MEL-2 melanoma, 65.7 µM.

Regarding `Clc1ccc2c(c1)-c1c3c(nn1-c1ccccc1)-c1ccccc1SC3O2` (configuration not stated), the TGI in the assay on HCC-2998 colon, in the assay with RPMI-8226 leukemia, in the assay on LOX IMVI melanoma, in the assay with K-562 leukemia, in the assay with MOLT-4 leukemia and with CCRF-CEM leukemia was over 100 µM each time. Besides, the TGI in the assay on SK-MEL-2 melanoma was over 100 µM.

For `O=c1c2cc(Br)cc(Br)c2nc(CCCl)n1CCO`, the TGI in the assay on HCC-2998 colon, in the assay with RPMI-8226 leukemia, in the assay with LOX IMVI melanoma, with K-562 leukemia, in the assay on MOLT-4 leukemia and in the assay with CCRF-CEM leukemia was over 100 µM throughout. The TGI in the assay with SN12C renal and in the assay with SK-MEL-2 melanoma was over 100 µM in each case.

Turning to `O=C(c1ccccc1)C1OC12C(=O)Nc1ccccc12` (configuration not stated), the TGI in the assay with RPMI-8226 leukemia was 84.9 µM; with LOX IMVI melanoma, over 100 µM; in the assay with K-562 leukemia it was 24.3 µM; with MOLT-4 leukemia, 34.1 µM; in the assay with CCRF-CEM leukemia, 25.2 µM; in the assay on SN12C renal, over 100 µM. This molecule also gave a TGI with SK-MEL-2 melanoma of over 100 µM.

As for `Cc1c(C(=O)/C=C/c2ccccc2)[n+](=O)c2ccccc2n1[O-]`, the TGI amounted to 30.2 µM in the assay on HCC-2998 colon; 45.9 µM in the assay with RPMI-8226 leukemia; 28.3 µM with LOX IMVI melanoma; 51.9 µM in the assay with K-562 leukemia; 54.6 µM in the assay with MOLT-4 leukemia; 74.7 µM in the assay with CCRF-CEM leukemia. This molecule gave a TGI in the assay on SN12C renal of 33.6 µM.

Regarding `C/C(CC(=O)NCCc1ccccc1)=N\NC(=O)C[n+]1ccccc1`, the TGI in the assay with HCC-2998 colon, in the assay with RPMI-8226 leukemia, in the assay with LOX IMVI melanoma, with K-562 leukemia, with MOLT-4 leukemia and with HCT-15 colon was over 100 µM throughout. For the same molecule, the TGI in the assay on SK-MEL-2 melanoma is over 100 µM.

Turning to `CSC(C1c2ccccc2N(c2ccc(C)cc2)c2[nH]c(=O)n(C)c(=O)c21)S(=O)(=O)c1ccc(C)cc1` (configuration not stated), the TGI with HCC-2998 colon, in the assay with RPMI-8226 leukemia, in the assay with LOX IMVI melanoma, in the assay on K-562 leukemia, in the assay with MOLT-4 leukemia and in the assay on CCRF-CEM leukemia was over 100 µM in each case. For the same molecule, the TGI with SN12C renal and with SK-MEL-2 melanoma was over 100 µM each time.

With `O=C1/C(=C/c2cccc([N+](=O)[O-])c2)COc2ccc(Br)cc21`, the TGI is over 100 µM in the assay on HCC-2998 colon; 6.57 µM in the assay with RPMI-8226 leukemia; over 100 µM with LOX IMVI melanoma; over 100 µM in the assay on K-562 leukemia; 96 µM in the assay with MOLT-4 leukemia; over 100 µM with CCRF-CEM leukemia. In the assay on SK-MEL-2 melanoma, the TGI was over 100 µM.

As for `O=C1NC2OC(C(O)CO)C(O)C2O1` (configuration not stated), the TGI in the assay on HCC-2998 colon, in the assay on LOX IMVI melanoma, in the assay with K-562 leukemia, with MOLT-4 leukemia, with CCRF-CEM leukemia and with HCT-15 colon was over 100 µM in each case. The TGI with SN12C renal and in the assay on SK-MEL-2 melanoma was over 100 µM throughout.

Regarding `C=CC/C=C/C/C=C/CCCCCCCc1cccc(O)c1C(=O)O`, the TGI in the assay on HCC-2998 colon, with RPMI-8226 leukemia, with LOX IMVI melanoma, in the assay on K-562 leukemia, in the assay with MOLT-4 leukemia and in the assay on CCRF-CEM leukemia was over 100 µM throughout. Also, the TGI in the assay with HCT-15 colon and with SK-MEL-2 melanoma was over 100 µM each time.

Turning to `S=C1OC2CCCC[C@H]2O1` (some centres not stated), the TGI with HCC-2998 colon, with RPMI-8226 leukemia, in the assay with LOX IMVI melanoma, with K-562 leukemia, with MOLT-4 leukemia and in the assay on CCRF-CEM leukemia was over 100 µM throughout. In addition, the TGI with SN12C renal and with SK-MEL-2 melanoma was over 100 µM each time.

Take `O=C1CC2CCCC23CC2(CCN13)OCCO2` (configuration not stated): the TGI with HCC-2998 colon, in the assay with RPMI-8226 leukemia, with LOX IMVI melanoma, in the assay on K-562 leukemia, in the assay on MOLT-4 leukemia and in the assay with CCRF-CEM leukemia was over 100 µM throughout. For the same molecule, the TGI in the assay with SN12C renal and in the assay on SK-MEL-2 melanoma was over 100 µM in each case.

Take `ClCc1cccc(Cn2cnc3nc(Cl)nc(Cl)c32)c1`: the GI50 in the assay on HCC-2998 colon is 1.52 µM; with RPMI-8226 leukemia, 1.72 µM; with K-562 leukemia it was 1.48 µM; with MOLT-4 leukemia it was 1.17 µM; with CCRF-CEM leukemia, 0.31 µM; in the assay on HCT-15 colon it was 0.955 µM. In the assay with SK-MEL-2 melanoma, the GI50 is 1.78 µM. The TGI turned out to be 2.9 µM in the assay with HCC-2998 colon; 4.15 µM with RPMI-8226 leukemia; 2.95 µM in the assay on K-562 leukemia; 2.7 µM in the assay on MOLT-4 leukemia; 0.973 µM in the assay on CCRF-CEM leukemia; 2.13 µM in the assay on HCT-15 colon. In the assay with SK-MEL-2 melanoma, this molecule came in with a TGI of 3.74 µM.

With `CC(C)(C)c1cc(C(O)(C(F)(F)F)C(F)(F)F)c2c(c1)C(C(F)(F)F)(C(F)(F)F)OC(C(C)(C)C)N2` (configuration not stated), the TGI in the assay on HCC-2998 colon was 15.7 µM; in the assay with RPMI-8226 leukemia, 6.74 µM; in the assay on K-562 leukemia it was 11 µM; in the assay on MOLT-4 leukemia, 5.34 µM; in the assay with HCT-15 colon it was 11.7 µM; in the assay with SN12C renal, 14.6 µM. In the assay with SK-MEL-2 melanoma, this molecule came in with a TGI of 10.3 µM.

Take `CCOC(=O)NC(=O)c1cn(CCCOC(=O)CCCCCCCCCCC(=O)OCCCn2cc(C(=O)NC(=O)OCC)c(=O)[nH]c2=O)c(=O)[nH]c1=O`: the TGI in the assay with HCC-2998 colon, in the assay with RPMI-8226 leukemia, in the assay with LOX IMVI melanoma, with K-562 leukemia, with MOLT-4 leukemia and in the assay with CCRF-CEM leukemia was over 100 µM throughout. Also, the TGI with SN12C renal and with SK-MEL-2 melanoma was over 100 µM throughout.

With `O=C1CSC(/C(=N/Nc2ccccc2)c2nc3ccccc3[nH]2)=N1`, the TGI in the assay on HCC-2998 colon was over 100 µM; with LOX IMVI melanoma, over 100 µM; with K-562 leukemia it was over 100 µM; in the assay on CCRF-CEM leukemia, 53.6 µM; in the assay with HCT-15 colon, over 100 µM; with SN12C renal it was over 100 µM. Besides, the TGI in the assay on SK-MEL-2 melanoma was over 100 µM.
